In patent US10723724B2, “Compounds for treating degenerative diseases of central nervous system or brain tumor, and uses thereof” (SUN YAT-SEN UNIVERSITY, priority 2016, dated 2020):

Assays:
HT-22 cells = assay: Effect on ROS (DHE staining) in HT-22 cells; assay type: cell-based; conditions: PT109 at 10 μM, 2 mM glutamine 10 h
Procedure: DHE staining was adopted to detect the formation of oxygen free radicals. The HT-22 cells were cultured in DMEM+10% fetal bovine serum and placed in a 5% CO2 incubator at 37° C. The cells were seeded in a poly-lysine-coated 24-well plate at a suitable density. After cell adherence, the PT109 separately prepared in the medium was added to the corresponding wells. Upon treatment for 30 min, 2 mM glutamine was added and treated for 10 h. The cells were harvested, and incubated with DHE dye for about 30 min. DHE dye was washed, and the fluorescence intensity of DHE was detected by a high-content system.

[1] = In vitro blood-brain barrier permeability (PBL artificial membrane); assay type: in vitro ADME
Procedure: 1) 4 μL of 2% PBL solution was added to the hydrophobic membrane of a MAIPn 4550 96-well plate. During the dripping process, it should be noted that the pipette tip should not touch the surface of the membrane to avoid the damage to the membrane structure.
2) 200 μL of the test sample solution (0.1 mg/ml) was quickly (within 10 min) and quantitatively pipetted, and added to the upside of the membrane of the 96-well plate as a donor compartment. 200 μL of PBS (pH=7.4) was added to the other side of the membrane as an acceptor compartment. It should be noted that the acceptor solution should keep being in full contact with the membrane.
3) The donor compartment was carefully removed upon standing for 120 min at room temperature, and the absorbance of the compound (250-500 nm) in the acceptor compartment was tested by UV spectrometer.
4) 100 μL of the test sample solution was fully mixed with 100 μL of PBS, and the mixture was used as a theoretical equilibrium solution. Its absorbance (250-500 nm) was measured and tested with an acceptor plate.
5) The log Pe value was calculated by the following equation: […]
wherein Vd is the volume of the donor compartment, Va is the volume of the acceptor compartment, A is the membrane area, t is the penetration time, [drug]acceptor is the absorbance of the acceptor compartment, and [drug]equilibrium is the absorbance of theoretical equilibrium. […]

SGK3 = target: T1, SGK3 (Homo sapiens, UniProt Q96BR1); assay: Kinase screening service (Life Technologies): SGK3; assay type: biochemical
T1 construct: purchased Life Technologies Corporation (kinase screening service)
Description: The inhibitory effect of PT109 on SGK and INK was detected by the kinase screening commercialization service of Life Technologies Corporation.

CDK1/cyclin B = target: T2, CDK1/cyclin B (Homo sapiens, UniProt P06493); assay: Kinase screening service: CDK1/cyclin B; assay type: biochemical; conditions: average of duplicates
T2 construct: purchased Life Technologies Corporation (Kinase Screening Service)
T2 sequence (P06493 whole entry): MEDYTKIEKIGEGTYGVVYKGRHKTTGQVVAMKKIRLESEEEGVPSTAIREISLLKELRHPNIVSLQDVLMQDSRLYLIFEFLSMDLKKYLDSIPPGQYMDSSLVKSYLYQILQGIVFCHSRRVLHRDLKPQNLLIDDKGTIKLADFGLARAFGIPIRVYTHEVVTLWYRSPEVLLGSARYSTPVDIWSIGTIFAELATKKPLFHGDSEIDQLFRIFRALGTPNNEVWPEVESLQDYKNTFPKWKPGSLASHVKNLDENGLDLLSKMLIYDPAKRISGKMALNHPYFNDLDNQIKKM
T2 sequence (P14635 whole entry partner): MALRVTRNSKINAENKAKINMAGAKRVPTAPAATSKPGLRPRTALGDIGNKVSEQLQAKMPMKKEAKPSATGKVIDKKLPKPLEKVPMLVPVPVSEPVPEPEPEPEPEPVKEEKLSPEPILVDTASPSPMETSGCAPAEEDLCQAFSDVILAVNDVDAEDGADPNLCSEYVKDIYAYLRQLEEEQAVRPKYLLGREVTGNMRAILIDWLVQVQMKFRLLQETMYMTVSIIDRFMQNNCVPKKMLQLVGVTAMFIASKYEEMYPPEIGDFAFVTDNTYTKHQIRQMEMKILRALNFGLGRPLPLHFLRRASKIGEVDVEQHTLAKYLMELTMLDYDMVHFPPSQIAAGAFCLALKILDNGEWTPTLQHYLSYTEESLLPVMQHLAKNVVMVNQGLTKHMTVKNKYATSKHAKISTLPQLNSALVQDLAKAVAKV
Procedure: (§1) The inhibitory effect of PT109 on other kinases including SGK and JNK was detected by the Kinase Screening Service of Life Technologies Corporation (The concentration of compound 9 was 10 μM, measurements were performed in duplicates, and the value was represented by an average) to investigate the selectivity of the compound for JNK and SGK1.

CDK5/p25 = target: T3, CDK5/p25 (Homo sapiens, UniProt Q00535); assay: Kinase screening service: CDK5/p25; assay type: biochemical; conditions: average of duplicates
T3 construct: purchased Life Technologies Corporation (Kinase Screening Service)
Procedure: as §1

CSNK1G2 (CK1 gamma 2) = target: T4, CSNK1G2 (CK1 gamma 2) (Homo sapiens, UniProt P78368); assay: Kinase screening service: CSNK1G2; assay type: biochemical; conditions: average of duplicates
T4 construct: purchased Life Technologies Corporation (Kinase Screening Service)
Procedure: as §1

GSK3B (GSK3 beta) = target: T5, GSK3B (GSK3 beta) (Homo sapiens, UniProt P49841); assay: Kinase screening service: GSK3B; assay type: biochemical; conditions: average of duplicates
T5 construct: purchased Life Technologies Corporation (Kinase Screening Service)
T5 sequence (P49841 whole entry): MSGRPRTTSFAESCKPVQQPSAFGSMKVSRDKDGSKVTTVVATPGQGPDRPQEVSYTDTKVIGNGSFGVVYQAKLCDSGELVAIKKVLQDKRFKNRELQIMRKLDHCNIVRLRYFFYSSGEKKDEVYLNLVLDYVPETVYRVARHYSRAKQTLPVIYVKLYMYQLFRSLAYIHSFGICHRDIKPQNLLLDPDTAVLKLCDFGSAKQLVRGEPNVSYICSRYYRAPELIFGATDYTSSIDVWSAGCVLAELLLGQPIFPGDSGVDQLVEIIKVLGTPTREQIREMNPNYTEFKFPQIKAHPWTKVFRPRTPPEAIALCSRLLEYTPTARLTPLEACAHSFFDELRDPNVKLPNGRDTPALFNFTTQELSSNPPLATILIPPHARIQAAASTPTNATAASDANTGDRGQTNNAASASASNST
Procedure: as §1

LTK (TYK1) = target: T6, LTK (TYK1) (Homo sapiens, UniProt P29376); assay: Kinase screening service: LTK; assay type: biochemical; conditions: average of duplicates
T6 construct: purchased Life Technologies Corporation (Kinase Screening Service)
Procedure: as §1

NEK7 = target: T7, NEK7 (Homo sapiens, UniProt Q8TDX7); assay: Kinase screening service: NEK7; assay type: biochemical; conditions: average of duplicates
T7 construct: purchased Life Technologies Corporation (Kinase Screening Service)
T7 sequence (Q8TDX7 whole entry): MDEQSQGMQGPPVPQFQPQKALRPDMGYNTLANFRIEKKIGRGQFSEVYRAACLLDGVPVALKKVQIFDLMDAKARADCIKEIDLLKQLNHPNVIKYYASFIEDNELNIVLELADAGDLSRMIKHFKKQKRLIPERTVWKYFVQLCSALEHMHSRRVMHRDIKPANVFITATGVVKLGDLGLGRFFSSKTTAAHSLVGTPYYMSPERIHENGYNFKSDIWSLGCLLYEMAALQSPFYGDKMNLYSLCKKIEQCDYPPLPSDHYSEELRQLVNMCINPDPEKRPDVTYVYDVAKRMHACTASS
Procedure: as §1

NTRK1 (TRKA) = target: T8, NTRK1 (TRKA) (Homo sapiens, UniProt P04629); assay: Kinase screening service: NTRK1; assay type: biochemical; conditions: average of duplicates
T8 construct: purchased Life Technologies Corporation (Kinase Screening Service)
T8 sequence (P04629 33-796): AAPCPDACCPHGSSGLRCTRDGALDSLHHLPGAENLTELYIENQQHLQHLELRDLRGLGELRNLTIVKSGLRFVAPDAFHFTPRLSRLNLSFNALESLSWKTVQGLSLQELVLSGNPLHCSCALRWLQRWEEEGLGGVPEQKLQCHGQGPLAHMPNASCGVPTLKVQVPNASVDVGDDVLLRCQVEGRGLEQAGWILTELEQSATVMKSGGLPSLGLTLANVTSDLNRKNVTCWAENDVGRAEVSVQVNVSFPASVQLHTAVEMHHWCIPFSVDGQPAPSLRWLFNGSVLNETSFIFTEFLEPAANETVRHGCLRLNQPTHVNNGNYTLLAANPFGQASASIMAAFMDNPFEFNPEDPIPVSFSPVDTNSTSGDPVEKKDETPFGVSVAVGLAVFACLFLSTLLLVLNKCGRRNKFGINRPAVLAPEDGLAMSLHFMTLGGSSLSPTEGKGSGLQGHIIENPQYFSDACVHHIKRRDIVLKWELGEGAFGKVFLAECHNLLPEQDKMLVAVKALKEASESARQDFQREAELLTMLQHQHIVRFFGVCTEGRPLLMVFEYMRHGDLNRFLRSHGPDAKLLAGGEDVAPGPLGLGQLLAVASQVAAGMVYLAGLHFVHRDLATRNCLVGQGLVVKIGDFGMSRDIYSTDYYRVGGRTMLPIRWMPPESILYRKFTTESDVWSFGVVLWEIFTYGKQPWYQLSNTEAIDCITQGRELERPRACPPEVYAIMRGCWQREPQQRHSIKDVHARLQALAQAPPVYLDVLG
Procedure: as §1

PDK1 = target: T9, PDK1 (Homo sapiens, UniProt O15530); assay: Kinase screening service: PDK1; assay type: biochemical; conditions: average of duplicates
T9 construct: purchased Life Technologies Corporation (Kinase Screening Service)
Procedure: as §1

PRKCB1 (PKC beta I) = target: T10, PRKCB1 (PKC beta I) (Homo sapiens, UniProt P05771); assay: Kinase screening service: PRKCB1; assay type: biochemical; conditions: average of duplicates
T10 construct: purchased Life Technologies Corporation (Kinase Screening Service)
T10 sequence (P05771 whole entry): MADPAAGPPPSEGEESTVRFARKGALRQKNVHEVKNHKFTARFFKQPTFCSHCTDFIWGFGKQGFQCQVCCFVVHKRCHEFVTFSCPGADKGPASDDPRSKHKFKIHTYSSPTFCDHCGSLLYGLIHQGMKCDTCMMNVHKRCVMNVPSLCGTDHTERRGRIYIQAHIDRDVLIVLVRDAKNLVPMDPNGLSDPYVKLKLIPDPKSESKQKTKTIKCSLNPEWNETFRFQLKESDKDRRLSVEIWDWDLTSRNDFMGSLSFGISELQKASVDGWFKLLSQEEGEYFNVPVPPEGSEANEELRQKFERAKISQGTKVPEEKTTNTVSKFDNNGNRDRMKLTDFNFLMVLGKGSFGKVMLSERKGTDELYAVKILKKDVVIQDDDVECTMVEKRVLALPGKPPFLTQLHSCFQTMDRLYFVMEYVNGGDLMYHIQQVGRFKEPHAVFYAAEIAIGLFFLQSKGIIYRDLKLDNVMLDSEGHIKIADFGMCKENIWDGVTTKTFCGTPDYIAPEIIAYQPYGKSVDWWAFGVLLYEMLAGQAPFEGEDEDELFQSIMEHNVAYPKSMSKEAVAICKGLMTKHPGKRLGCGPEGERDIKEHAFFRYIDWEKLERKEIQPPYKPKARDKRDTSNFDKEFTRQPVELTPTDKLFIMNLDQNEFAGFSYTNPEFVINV
Procedure: as §1

PRKCH (PKC eta) = target: T11, PRKCH (PKC eta) (Homo sapiens, UniProt P24723); assay: Kinase screening service: PRKCH; assay type: biochemical; conditions: average of duplicates
T11 construct: purchased Life Technologies Corporation (Kinase Screening Service)
Procedure: as §1

RPS6KA3 (RSK2) = target: T12, RPS6KA3 (RSK2) (Homo sapiens, UniProt P51812); assay: Kinase screening service: RPS6KA3; assay type: biochemical; conditions: average of duplicates
T12 construct: purchased Life Technologies Corporation (Kinase Screening Service)
Procedure: as §1

SRMS (Srm) = target: T13, SRMS (Srm) (Homo sapiens, UniProt Q9H3Y6); assay: Kinase screening service: SRMS; assay type: biochemical; conditions: average of duplicates
T13 construct: purchased Life Technologies Corporation (Kinase Screening Service)
Procedure: as §1

STK22D (TSSK1) = target: T14, STK22D (TSSK1) (Homo sapiens, UniProt Q9BXA7); assay: Kinase screening service: STK22D; assay type: biochemical; conditions: average of duplicates
T14 construct: purchased Life Technologies Corporation (Kinase Screening Service)
Procedure: as §1

TBK1 = target: T15, TBK1 (Homo sapiens, UniProt Q9UHD2); assay: Kinase screening service: TBK1; assay type: biochemical; conditions: average of duplicates
T15 construct: purchased Life Technologies Corporation (Kinase Screening Service)
Procedure: as §1

TYRO3 (RSE) = target: T16, TYRO3 (RSE) (Homo sapiens, UniProt Q06418); assay: Kinase screening service: TYRO3; assay type: biochemical; conditions: average of duplicates
T16 construct: purchased Life Technologies Corporation (Kinase Screening Service)
Procedure: as §1

CHUK (IKK alpha) = target: T17, CHUK (IKK alpha) (Homo sapiens, UniProt O15111); assay: Kinase screening service: CHUK; assay type: biochemical; conditions: average of duplicates
T17 construct: purchased Life Technologies Corporation (Kinase Screening Service)
Procedure: as §1

PI4KB (PI4K beta) = target: T18, PI4KB (PI4K beta) (Homo sapiens, UniProt Q9UBF8); assay: Kinase screening service: PI4KB; assay type: biochemical; conditions: average of duplicates
T18 construct: purchased Life Technologies Corporation (Kinase Screening Service)
T18 sequence (Q9UBF8 whole entry): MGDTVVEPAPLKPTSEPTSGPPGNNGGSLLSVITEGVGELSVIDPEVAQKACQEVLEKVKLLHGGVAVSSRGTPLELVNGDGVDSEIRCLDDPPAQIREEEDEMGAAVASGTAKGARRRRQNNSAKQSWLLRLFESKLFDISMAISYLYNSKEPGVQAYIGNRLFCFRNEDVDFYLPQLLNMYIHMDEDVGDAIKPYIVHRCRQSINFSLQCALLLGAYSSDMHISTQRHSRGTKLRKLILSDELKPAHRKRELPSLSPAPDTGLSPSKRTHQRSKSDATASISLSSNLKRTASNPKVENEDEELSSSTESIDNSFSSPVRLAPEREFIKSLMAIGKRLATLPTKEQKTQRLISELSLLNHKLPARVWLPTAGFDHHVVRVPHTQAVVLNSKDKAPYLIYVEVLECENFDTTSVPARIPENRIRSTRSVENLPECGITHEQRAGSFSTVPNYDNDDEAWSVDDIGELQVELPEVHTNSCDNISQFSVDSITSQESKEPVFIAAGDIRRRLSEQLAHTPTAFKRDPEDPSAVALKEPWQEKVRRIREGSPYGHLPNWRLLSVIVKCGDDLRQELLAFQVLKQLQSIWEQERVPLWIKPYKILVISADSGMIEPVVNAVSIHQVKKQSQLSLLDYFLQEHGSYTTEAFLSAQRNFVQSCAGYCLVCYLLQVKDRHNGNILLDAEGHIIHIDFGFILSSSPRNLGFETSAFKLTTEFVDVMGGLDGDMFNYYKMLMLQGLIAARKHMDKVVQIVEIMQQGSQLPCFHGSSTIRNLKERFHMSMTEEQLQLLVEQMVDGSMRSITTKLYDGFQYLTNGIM
Procedure: as §1

PIK3CG (p110 gamma) = target: T19, PIK3CG (p110 gamma) (Homo sapiens, UniProt P48736); assay: Kinase screening service: PIK3CG; assay type: biochemical; conditions: average of duplicates
T19 construct: purchased Life Technologies Corporation (Kinase Screening Service)
Procedure: as §1

MAP3K3 (MEKK3) = target: T20, MAP3K3 (MEKK3) (Homo sapiens, UniProt Q99759); assay: Kinase screening service: MAP3K3; assay type: biochemical; conditions: average of duplicates
T20 construct: purchased Life Technologies Corporation (Kinase Screening Service)
Procedure: as §1

MYO3B (MYO3 beta) = target: T21, MYO3B (MYO3 beta) (Homo sapiens, UniProt Q8WXR4); assay: Kinase screening service: MYO3B; assay type: biochemical; conditions: average of duplicates
T21 construct: purchased Life Technologies Corporation (Kinase Screening Service)
T21 sequence (Q8WXR4 whole entry): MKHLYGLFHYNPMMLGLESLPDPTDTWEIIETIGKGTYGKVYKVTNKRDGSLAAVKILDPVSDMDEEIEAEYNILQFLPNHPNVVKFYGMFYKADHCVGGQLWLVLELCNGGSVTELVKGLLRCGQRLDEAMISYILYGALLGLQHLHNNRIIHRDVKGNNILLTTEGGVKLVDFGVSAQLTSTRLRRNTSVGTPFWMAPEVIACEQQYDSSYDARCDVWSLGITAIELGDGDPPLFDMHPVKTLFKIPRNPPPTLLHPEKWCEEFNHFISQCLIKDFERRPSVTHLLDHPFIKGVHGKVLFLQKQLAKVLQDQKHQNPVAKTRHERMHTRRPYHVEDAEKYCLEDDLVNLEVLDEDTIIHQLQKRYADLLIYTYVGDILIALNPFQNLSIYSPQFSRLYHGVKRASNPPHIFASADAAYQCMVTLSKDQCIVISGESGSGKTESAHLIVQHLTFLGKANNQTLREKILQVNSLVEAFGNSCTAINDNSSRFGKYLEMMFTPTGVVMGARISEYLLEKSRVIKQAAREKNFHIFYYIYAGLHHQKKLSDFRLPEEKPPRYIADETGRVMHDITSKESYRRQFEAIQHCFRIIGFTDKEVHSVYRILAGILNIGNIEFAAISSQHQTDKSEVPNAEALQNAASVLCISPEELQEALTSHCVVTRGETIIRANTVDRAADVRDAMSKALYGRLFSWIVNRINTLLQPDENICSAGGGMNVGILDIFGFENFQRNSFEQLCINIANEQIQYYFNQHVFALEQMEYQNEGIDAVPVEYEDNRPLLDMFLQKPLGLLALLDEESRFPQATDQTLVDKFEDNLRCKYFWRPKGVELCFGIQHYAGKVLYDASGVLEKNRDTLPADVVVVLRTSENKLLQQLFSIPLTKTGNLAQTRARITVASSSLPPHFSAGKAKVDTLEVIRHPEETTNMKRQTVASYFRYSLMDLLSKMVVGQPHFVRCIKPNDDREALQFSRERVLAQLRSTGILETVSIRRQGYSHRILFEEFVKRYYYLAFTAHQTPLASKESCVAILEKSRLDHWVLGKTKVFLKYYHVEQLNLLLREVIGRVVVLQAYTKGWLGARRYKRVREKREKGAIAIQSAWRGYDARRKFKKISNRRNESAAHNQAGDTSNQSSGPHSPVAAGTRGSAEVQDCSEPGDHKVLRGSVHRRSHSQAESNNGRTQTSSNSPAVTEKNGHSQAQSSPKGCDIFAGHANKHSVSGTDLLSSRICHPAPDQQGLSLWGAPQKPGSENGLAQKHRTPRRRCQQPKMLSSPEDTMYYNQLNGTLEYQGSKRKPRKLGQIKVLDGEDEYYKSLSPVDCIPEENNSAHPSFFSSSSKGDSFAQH
Procedure: as §1

PLK4 = target: T22, PLK4 (Homo sapiens, UniProt O00444); assay: Kinase screening service: PLK4; assay type: biochemical; conditions: average of duplicates
T22 construct: purchased Life Technologies Corporation (Kinase Screening Service)
Procedure: as §1

SLK = target: T23, SLK (Homo sapiens, UniProt Q9H2G2); assay: Kinase screening service: SLK; assay type: biochemical; conditions: average of duplicates
T23 construct: purchased Life Technologies Corporation (Kinase Screening Service)
Procedure: as §1

ULK1 = target: T24, ULK1 (Homo sapiens, UniProt O75385); assay: Kinase screening service: ULK1; assay type: biochemical; conditions: average of duplicates
T24 construct: purchased Life Technologies Corporation (Kinase Screening Service)
Procedure: as §1

Papp at 120 min, 0.1 mg/ml ([1]; PAMPA, PBL membrane, PBS pH=7.4, 120 min, room temperature, read-out: Pe): 11.93 ± 0.08 ×10⁻⁶ cm/s | IC50 (SGK3): 26.4 µM | inhibition at 10 µM (CDK1/cyclin B): 14% | inhibition at 10 µM (CDK5/p25): 18% | inhibition at 10 µM (CSNK1G2 (CK1 gamma 2)): 15% | inhibition at 10 µM (GSK3B (GSK3 beta)): 61% | inhibition at 10 µM (LTK (TYK1)): 40% | inhibition at 10 µM (NEK7): 2% | inhibition at 10 µM (NTRK1 (TRKA)): 35% | inhibition at 10 µM (PDK1): 5% | inhibition at 10 µM (PRKCB1 (PKC beta I)): -10% | inhibition at 10 µM (PRKCH (PKC eta)): -17% | inhibition at 10 µM (RPS6KA3 (RSK2)): 54% | inhibition at 10 µM (SRMS (Srm)): 20% | inhibition at 10 µM (STK22D (TSSK1)): -2% | inhibition at 10 µM (TBK1): 10% | inhibition at 10 µM (TYRO3 (RSE)): 12% | inhibition at 10 µM (CHUK (IKK alpha)): 16% | inhibition at 10 µM (PI4KB (PI4K beta)): 39% | inhibition at 10 µM (PIK3CG (p110 gamma)): 9% | inhibition at 10 µM (MAP3K3 (MEKK3)): 3% | inhibition at 10 µM (MYO3B (MYO3 beta)): 43% | inhibition at 10 µM (PLK4): 35% | inhibition at 10 µM (SLK): 5% | inhibition at 10 µM (ULK1): 26%
Structure (SMILES): O=C(CCCCC1CCSS1)NC1CCC(Nc2cccc3cnccc23)CC1 (stereo not drawn) [PT109, 5-(1,2-dithiolan-3-yl)-N-(4-(isoquinolin-5-ylamino)cyclohexyl) pentanamide]
glutamine-induced ROS elevation (DHE fluorescence) (HT-22 cells): significantly reduced | Prediction ([1]; from Pe): CNS+ (If Pe×10^−6 cm s^−1 value is greater than 5.3, the compound is able to cross the blood-brain barrier)
